Measurements taken from paper PMC3010111 (Molecular Systems Biology, 2010).

Molecular target: T1, AroB (dehydroquinate synthase) (Escherichia coli, UniProt P07639)
T1 sequence (P07639 1-362): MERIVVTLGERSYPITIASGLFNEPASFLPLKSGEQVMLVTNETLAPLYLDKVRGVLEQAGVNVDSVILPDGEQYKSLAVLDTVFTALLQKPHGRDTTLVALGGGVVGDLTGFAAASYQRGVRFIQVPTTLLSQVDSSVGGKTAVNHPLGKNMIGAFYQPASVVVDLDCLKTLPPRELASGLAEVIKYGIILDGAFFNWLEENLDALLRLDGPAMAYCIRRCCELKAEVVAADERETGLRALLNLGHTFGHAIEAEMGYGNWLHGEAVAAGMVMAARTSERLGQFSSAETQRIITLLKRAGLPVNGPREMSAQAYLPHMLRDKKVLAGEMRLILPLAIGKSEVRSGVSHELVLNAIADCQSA
Assay: NAD+ reduction
Format: biochemical
Details: 2 mM NAD+, 100 mM Tris–HCl pH 7.5, 10°C; 11 μM AroB

## O=C(O)[C@H](O)[C@H](O)COP(=O)(O)O [4PE]
  NAD+ reduction; single turnover (data not shown): AroB also oxidizes 4PE, but carries out only a single turnover (data not shown).
